Two compounds from publication PMC4500499, “Azanitrile Cathepsin K Inhibitors: Effects on Cell Toxicity, Osteoblast-Induced Mineralization and Osteoclast-Mediated Bone Resorption” (PLoS ONE, 2015) can be followed below.

Broadly, the IC50 is the concentration needed to halve the response being measured.

This experiment has as its target T1, cathepsin K (Homo sapiens, UniProt P43235).
T1 construct: gene CTSK; recombinant human CatK
T1 sequence (P43235 115-329): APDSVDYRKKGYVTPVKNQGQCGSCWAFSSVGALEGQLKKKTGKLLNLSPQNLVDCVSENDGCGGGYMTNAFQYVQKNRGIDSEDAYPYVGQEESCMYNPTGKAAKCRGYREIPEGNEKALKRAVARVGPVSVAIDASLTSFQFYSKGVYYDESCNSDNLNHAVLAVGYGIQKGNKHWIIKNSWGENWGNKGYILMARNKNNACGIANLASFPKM
Put plainly: gelatin zymography with recombinant human CatK. The experiment is classed as biochemical.

Turning to `CC(C)C[C@H](NC(=O)c1cccc(-c2ccc(-c3ccccc3)cc2)c1)C(=O)N(C)N(C)C#N` [CKI-13], the IC50 worked out at 29 ± 11 nM.
In the case of `CC(C)C[C@H](NC(=O)c1ccc(-c2ccc(-c3ccccc3)cc2)cc1)C(=O)N(C)N(C)C#N` [CKI-8], the IC50 was determined as 51 ± 20 nM.
